Test results taken from the supplement of paper PMC10307832.

Key:
Assay in all cases: relative viability (nuclei count vs DMSO), 5 days (fraction); higher = more cells survive
[1] = compound: COC1=C(C=C(C=C1)C2=CC3=NC=CN3C(=N2)NC4=C(C=CC=N4)C(=O)N)OC [BAY61-3606] + CC(=O)Nc1cccc(-n2c(=O)n(C3CC3)c(=O)c3c(Nc4ccc(I)cc4F)n(C)c(=O)c(C)c32)c1 [Trametinib] (partner 0.02 µM)
Procedure, shortened: (§1)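 Lung cancer cell lines were seeded in 1536-well plates and dosed by pin tool the next day, with either a single drug or a fixed anchor-drug dose combined with five library-drug doses (not always all listed) spaced in √10 steps. Five days later, one step fixed the cells and stained their nuclei (final 0.05% Triton X-100, 1% formaldehyde, 1 ug/ml Hoechst), and nuclei were counted on 4× images. Relative viability is the nuclei count in treated wells divided by the count in vehicle wells, and each value is the median of duplicate plates.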

[2] = compound: COC1=C(C=C(C=C1)C2=CC3=NC=CN3C(=N2)NC4=C(C=CC=N4)C(=O)N)OC [BAY61-3606] + C[C@@H](Oc1cc(-c2cnn(C3CCNCC3)c2)cnc1N)c1c(Cl)ccc(F)c1Cl [Crizotinib] (partner 1 µM)
Procedure, shortened: as §1

[3] = compound: COc1cccc2c1C(=O)c1c(O)c3c(c(O)c1C2=O)C[C@@](O)(C(=O)CO)C[C@@H]3O[C@H]1C[C@H](N)[C@H](O)[C@H](C)O1 [Doxorubicin] + CC(C)C[C@H](NC(=O)[C@H](Cc1ccccc1)NC(=O)c1cnccn1)B(O)O [Bortezomib] (partner 0.002 µM)
Procedure, shortened: as §1

[4] = compound: COc1cccc2c1C(=O)c1c(O)c3c(c(O)c1C2=O)C[C@@](O)(C(=O)CO)C[C@@H]3O[C@H]1C[C@H](N)[C@H](O)[C@H](C)O1 [Doxorubicin] + Nc1nc2[nH]cc(CCc3ccc(C(=O)N[C@@H](CCC(=O)O)C(=O)O)cc3)c2c(=O)[nH]1 [Pemetrexed] (partner 0.2 µM)
Procedure, shortened: as §1

UMC-11 showed a relative viability ([1]; first compound 0.02 µM) of 0.823, a relative viability ([1]; first compound 0.06325 µM) of 0.63 and a relative viability ([1]; first compound 0.2 µM) of 0.509. It also gave a relative viability ([1]; first compound 0.6325 µM) of 0.759, a relative viability ([1]; first compound 2 µM) of 0.688 and a relative viability ([2]; first compound 0.02 µM) of 0.664. For the same cell line, the relative viability ([2]; first compound 0.06325 µM) was 0.613, the relative viability ([2]; first compound 0.2 µM) was 0.503 and the relative viability ([2]; first compound 0.6325 µM) was 0.762. For the same cell line, the relative viability ([2]; first compound 2 µM) was 0.509, the relative viability ([3]; first compound 0.001 µM) was 0.667 and the relative viability ([3]; first compound 0.003162 µM) was 0.543. It also gave a relative viability ([3]; first compound 0.01 µM) of 0.668, a relative viability ([3]; first compound 0.03162 µM) of 0.379 and a relative viability ([3]; first compound 0.1 µM) of 0.436. The relative viability ([4]; first compound 0.001 µM) was 0.831, the relative viability ([4]; first compound 0.003162 µM) was 0.901 and the relative viability ([4]; first compound 0.01 µM) was 0.823. For the same cell line, the relative viability ([4]; first compound 0.03162 µM) was 0.645 and the relative viability ([4]; first compound 0.1 µM) was 0.636.
